Results on 1 compound are retold here after publication PMC3726599, “A Metabolically-Stabilized Phosphonate Analog of Lysophosphatidic Acid Attenuates Collagen-Induced Arthritis” (PLoS ONE, 2013).

One experiment concerns lymphocyte trafficking. The arrangement: method as in PMID 23365076. The settings on record: cited from earlier work.
The test system of another experiment is LPA2. The settings on record: Ca++ mobilization, RH7777 cells; kind of constant not given; read-out: inhibition of LPA2; cited from earlier work.
Experiment [1] deals with T1, endogenous ATX/lysoPLD activity in whole blood (Mus musculus, UniProt Q9R1E6).
T1 construct: from tissue; host or cells: mouse plasma / whole blood
In words: Inhibition of ATX activity in whole blood ex vivo (TOOS assay). In kind it is biochemical. The conditions noted are these: 2 h 37°C, TOOS with 1 mM LPC. The protocol:
ATX/LysoPLD activity was assessed based on the amount of choline released from LPC with the use of TOOS (N-ethyl-N-(2-hydoroxy-3-sulfopropyl)-3-methylaniline) reagent. In this assay ATX-mediated LPC-liberated choline is oxidised by choline oxidase to betaine and hydrogen peroxide (H2O2). The latter in the presence of horseradish peroxidase reacts with TOOS and 4-aminoantipyrene (4-AAP) to form a pink quinoneimine dye measured at 555 nm. […]
The liberated choline was detected by adding 100 μl of a color mix containing 4-AAP and TOOS (0.3 mM), horseradish peroxidase (5.3 UnitmL^−1) and choline oxidase (2 UnitmL^−1). Absorbance was measured at 555 nm and data were analyzed using the statistical software package Prism 4.0 (Graphpad Software Inc, La Jolla, CA, USA). For each sample and control the absorbance was plotted against time and the slope (da/min) for the linear (steady-state) portion of each reaction profile was calculated. Absorbance units were converted to nmol of choline/min/ml by comparison with a choline standard curve or by use of the extinction coefficient for the quinoneimine dye according to the following equation: [drawing 1] […]
Venous blood from wild type mouse was collected in EDTA tubes. […] IC50 values using ATX activity and LPA levels were determined graphically as described above.

The next experiment concerns A549 cell. Also on record: method as in PMID 20143443. The settings on record: A549, in vitro; cited from earlier work.
Another experiment has as its system LPA1. The settings on record: Ca++ mobilization, RH7777 cells; kind of constant not given; read-out: inhibition of LPA1; cited from earlier work.
In experiment [2] the test system is human colon cancer cells (HCT-116). Also on record: method as in earlier work. The conditions noted are these: HCT-116, in vitro; cited from earlier work.

In the case of `CCCCCCCCCCCCCCCC(=O)OC[C@@H](O)CC(Br)P(=O)(O)O` (stereo partly drawn) [BrP-LPA, 1-bromo-3(S)-hydroxy-4-(palmitoyloxy)butyl-phosphonate], the “lymphocyte trafficking in draining lymph nodes” value in the experiment on lymphocyte trafficking is reported as “reduce lymphocyte trafficking in draining lymph nodes”. Also, the values for the IC50 (in the experiment with LPA2; in experiment [1]; in the experiment with LPA1) were 1400 nM, 600 nM and 1500 nM, respectively. In addition, in the experiment with A549 cell, the “cell migration and invasiveness” value was “inhibit cell migration and invasiveness”. Moreover, the “proliferation, migration and invasion” value in experiment [2] is “reduce human colon cancer cells (HCT-116) proliferation, migration and invasion in vitro”.
